According to ChEMBL document CHEMBL1139889, “Identification and characterization of a library of microheterogeneous cyclohexadepsipeptides from the fungus Isaria” (J Nat Prod, 2007):
Peptide text beside a SMILES is read from it.

Columns and labels:
Plasmodium falciparum = experiment: Growth inhibition of Plasmodium falciparum 3D7 in erythrocytes by [3H]hypoxanthine uptake; format: functional, organism-based
[1] = Toxicity against human erythrocytes assessed as lysis at 300 uM; format: cell-based; conditions: erythrocyte
[2] = Toxicity against human erythrocytes assessed as lysis at 600 uM; format: cell-based; conditions: erythrocyte

| SMILES | IC50 (Plasmodium falciparum) [µM] | Activity [1] | Activity [2] |
| --- | --- | --- | --- |
| CC(C)CC1OC(=O)CCNC(=O)[C@H](Cc2ccccc2)N(C)C(=O)[C@H](C(C)C)N(C)C(=O)[C@H](Cc2ccccc2)NC(=O)[C@@H]2CCCN2C1=O (stereo partly specified) [ISARIDINE A] (HELM PEPTIDE1{F.[meV].[meF].[bAla].[CC(C)CC(O[*:1])C(=O)[*:2]].P}$PEPTIDE1,PEPTIDE1,1:R1-6:R2$$$V2.0) | 230 | Non-toxic | Non-toxic |
| CCCCCCC1CC(=O)NCC(=O)N[C@@H](C(C)C)C(=O)N[C@H](CC(C)C)C(=O)N[C@@H](C)C(=O)N[C@@H](C(C)C)C(=O)O1 (stereo partly specified) [ISARIIN B] | 118 | Non-toxic | Non-toxic |
